Structures can show the parent of a compound that is named as a salt.

In this test the test system is Demodex. The experiment in a line: Acaricidal experiment: Demodex culture in vitro, survival time of mites. The note with it: adult Demodex, 20° C., 96% humidity. As to the method: This study strictly followed the ethical principles of the Declaration of Helsinki, and Ethical Guidelines for Biomedical Research Involving Human Subjects. In this study, Demodex was collected from patients diagnosed with ocular Demodex infection. Those meeting the inclusion criteria would be enrolled after an informed conversation and signing an informed consent form.
Demodex detection was performed according to the conventional eyelash microscopic examination method. 3 eyelashes were extracted from each eyelid, and a total of 12 eyelashes were extracted. The extracted eyelashes were immediately placed on a glass slide, and one piece of each three eyelashes was placed under an ordinary light microscope for observation. Demodex at all stages were counted and classified according to morphology (specific criteria were: Demodex brevis at a head-to-body ratio of 1:1 and Demodex folliculorum at a head-to-body ratio of 1:3 to 1:4). Only adults that were fully exposed to the field of view were taken as subjects (larvae and eggs were not considered as subjects since they were more fragile in early life).
Based on the above detection of Demodex, 50 μl of different solutions were added to each slide, and the survival of the worms was observed every 1 hour. The death was judged by observing whether the worms were active (body, limbs, or the like) under a microscope. Two skilled Demodex-related experimenters observed and judged separately during the experiment. If the judgment results were different, the third skilled experimenter was asked to make an independent judgment. The culture in vitro was performed in a climate chamber at 20° C. and 96% humidity. Slides were transported in a humid chamber under observation and the solution was added appropriately to ensure high humidity before vacuoles appeared on solution evaporation.

`N[C@H]1C[C@@H]1c1ccccc1` [Hydrochloride salt of V-C]: the “Average survival time of mites” value (concentration 1 mg/mL in 0.9% NaCl solution) was determined as 7.44 ± 6.07 h, the “Average survival time of mites” value (concentration 3 mg/mL in 0.9% NaCl solution) came to 5.66 ± 0.91 h, the “Average survival time of mites” value (concentration 10 mg/mL in 0.9% NaCl solution) was 2.89 ± 1.08 h and the “Average survival time of mites” value (concentration 30 mg/mL in 0.9% NaCl solution) was determined as 2.24 ± 1.32 h.

Values taken from patent publication US20240293370A1, “USE OF COMPOUNDS IN INHIBITING OR KILLING MITES AND TREATING XEROPHTHALMIA” (Precvision Biotechnologies LTD., priority 2021, published 2024).
